Patent publication US20240173325A1, “METHODS FOR TREATING SPINAL MUSCULAR ATROPHY” (Genentech, Inc., priority 2022, published 2024)
Entries after “also recorded” stand apart in the source; their conditions may differ.

How the values were obtained:
[1] = Treatment emergent adverse events and safety monitoring of carrier, fetal subject and neonatal subject; format: in vivo, human; parameters: key to Serious (Y/N) / Study Term (Y/N): “Y” refers to yes; “N” refers to no; conditions: for Adverse Event or MedDRA Term: exposed in utero, oral 0.15 mg/kg from 8 days post-birth, 0.15 mg/kg
Text: X1 included routine monitoring of the carrier for the third trimester, specifically with regards to development of hypertension and features of pre-eclampsia or HELLP syndrome, with related blood and urine testing. X1 also included monitoring nausea, vomiting, or dehydration in the carrier and placental integrity and amniotic fluid volume. X1 further included fetal monitoring for fetal growth, organ system development, and fetal well- being and any signs of organ maldevelopment, especially in the brain, heart, kidney, and liver. A baseline pre-treatment full anatomical ultrasound study and growth scan were performed and subsequent ultrasonography occurred at three and six weeks before delivery of the fetal subject as the neonatal subject.
Also in Table 3, “X2” included safety labs for the carrier, such as the CBC screening, the CMP screening, and the UA, to assess potential toxicity from risdiplam, which were collected before dosing and then prior to delivery. The safety labs were collected at the baseline before dosing, then every 3-4 weeks up to delivery, including pre-operatively prior to the scheduled cesarean section. More frequent testing may occur if clinically indicated.
In Table 4, the “X5” post-delivery PK/PD collection and safety labs of the neonatal subject included CBC screening, CMP screening, and UA, and such safety labs could be repeated if the results are deemed abnormal as compared to a healthy individual.
Table 5 summarizes results of the carrier and the fetal subject clinical assessments during the pregnancy of the carrier when exposed to risdiplam and in the neonatal subject for 6 weeks following delivery, for a minimum of 30 days following the last dose of risdiplam.
Specifically, Table 5 depicts the treatment emergent adverse events, seriousness of the event, intensity of the adverse event, relatedness of the adverse event to administration of the risdiplam, study term, and start and end dates for the adverse event the detected from this Example.
Each adverse event term is associated with a Medical Dictionary for Regulatory Activity (or MedDRA) term and the intensity is categorized based on the CTCAE grading. In Table 5, “Y” refers to yes and “N” refers to no and the intensity is measured from a lowest level of intensity or “I” to a highest level of intensity or “V.” “VSD” is a ventricular septal defect, “GERD” is gastroesophageal reflux disease, and “NICU” refers to neonatal intensive care unit.

neonatal subject = assay: Clinical assessments of the neonatal subject (physical/neurologic exam, CHOP INTEND, HINE-2, Bayley-4, OrSAT, ultrasound); format: in vivo, human; conditions: for CHOP INTEND: highest possible score 64; for Oral-motor assessment (OrSAT): maximum score 7
Description: Following birth, the neonatal subject, approximately one week and again at approximately six weeks of age, was assessed using the Hammersmith Infant Neurological Exam (HINE), Bayley Scales of Infant and Toddler Development, 4th edition (“Bayley™-4), the Children's Hospital of” Philadelphia Infant Test of Neuromuscular Disorders (CHOP INTEND), the Oral and Swallowing Abilities Tool (OrSAT), respiratory inductance plethysmography (RIP), a complete physical examination, anthropometric measurements (including vital signs, length, weight, head circumference and chest circumference), nerve conduction testing (specifically compound muscle action potential (CMAP) and motor unit number estimation (MUNE)), an ultrasound of the brain and muscles, blood and urine collection for CBC, CMP, U/A, and risdiplam PK/PD. The CBC, CMP, and U/A could be repeated at six weeks if the neonatal subject had not initiated any SMN-directed therapies, if there was a clinical indication upon physical examination, or if the one-week labs had clinically significant abnormal results.
The maximum score for the HINE-2 is 26 points, with a higher score reflecting a higher function, respectively.
Bayley™-4 is a comprehensive assessment tool for determining developmental delays in high-risk neonatal subjects. See Bayley & Aylward (2019) Bayley Scales of Infant and Toddler Development (4th ed.) technical manual. Bloomington, MN: NCS Pearson. Bayley™-4 scores from an assessment of early childhood development. Specifically, Bayley™-4 tests developmental skills such as cognitive, language, and motor skills of the neonatal subject. The scores represent how well the neonatal subject performed in these areas as compared to a group of neonatal subjects in the same age range. The Bayley™-4 mean standard score is 100 and the standard deviation is 15.
In Table 6, “CHOP INTEND” refers to a test that provides information about how strong the neonatal subject's muscles are and how well the neonatal subject can control his/her muscles. During the CHOP INTEND examination, a health care provider measures 16 types of muscle movements, which include head control (keeping the head upright), elbow flexion and knee extension (bending the joints), arm and leg mobility, and handgrip. […] All of the CHOP INTEND scores add up to one total score, with the highest possible score for the CHOP INTEND test being 64. With a score of 50 at 6 weeks and a score of 55 at 18 weeks, the neonatal subject was considered to be normal.
“OrSAT” or “Oral and Swallowing Abilities Tool” is a tool specifically designed to record structured information on different aspects related to oral, swallowing and feeding abilities in patients with type 1 SMA. See Berti (2022) Arch. Dis. Child. archdischild-2022-323899. Specifically, OrSAT includes several questions, where the responses are graded using a scoring system: each item is scored as 0 or 1 depending if the patient is able or unable to perform a given activity. Since some items are age-dependent, the number of items and the maximal score increases with an increasing age. If the neonatal subject younger than 6 months of age who cannot be assessed on swallowing semisolids or solids, the maximum score is 7, whereas if the neonatal subject is between 6 and 9 months of age, who can be assessed on this criteria, the maximum score is 10. If the neonatal subject is 10 months of age or older and can be assessed for all food consistencies, including solids, the maximum total score is 12. See Berti (2021) J. Neuromuscul. Dis. 8(4):589-601.
Muscle ultrasound was performed using a 11-mHz-linear array transducer (60 mm width) in B-mode (GE Vivid E95; GE, Chicago, IL, USA) to evaluate for muscle fasciculation in the right and left biceps, the abductor digiti minimi muscle, the quadriceps, the transverse abdominal muscle, the gastrocnemius-soleus, the lumbar paraspinals and the tongue. Thickness of the quadriceps muscle was measured. […]

Ultrasound studies Neurosonogram Muscle (neonatal subject; 1 week): normal
General Physical Exam (neonatal subject; 1 week to 18 weeks): Heart murmur (VSD)
Mental status (neonatal subject; 2 weeks to 2 months): Somnolent and fussy
Ultrasound studies Neurosonogram Muscle (neonatal subject; 6 weeks): normal
Ultrasound studies Neurosonogram Muscle (neonatal subject; 18 weeks): normal
APGAR score (neonatal subject; 1 minute): APGAR scores: 7
APGAR score (neonatal subject; 5 minutes): minute), 8 (5 minutes)
Growth (weight gain) (neonatal subject; after 2 months): Normal after
Mental status (neonatal subject; after 2 months): Normal after
General Physical Exam (neonatal subject; birth to 1 week): Respiratory distress
Mental status (neonatal subject; birth to 1 week): Normal
Ultrasound studies Neurosonogram Muscle (neonatal subject; birth to 1 week (DOL2)): normal DOL2
Structure (SMILES): Cc1cn2nc(-c3cc(=O)n4cc(N5CCNC6(CC6)C5)ccc4n3)cc(C)c2n1 [risdiplam, 7-(4,7-diazaspiro[2.5]octan-7-yl)-2-(2,8-dimethylimidazo[1,2-b]pyridazin-6-yl)-4H-pyrido[1,2-a]pyrimidin-4-one]
Serious (Y/N) ([1]; carrier adverse events): N
Study Term (Y/N) ([1]; carrier adverse events): N
Overall safety and tolerability ([1]; carrier and subject as fetal and neonatal subject): no drug-related adverse events; also recorded: safe and well tolerated
Surveillance labs during pregnancy ([1]; carrier while on risdiplam): normal until proteinuria was detected at 36WG
Fetal ultrasound assessments ([1]; fetal subject during carrier treatment): unremarkable
Biophysical profiles ([1]; fetal subject, each time point): normal
CBC, CMP, and U/A ([1]; neonatal subject): normal
Study Term (Y/N) ([1]; neonatal subject adverse events): N
Adverse Event or MedDRA Term ([1]; neonatal subject, adverse event number 1): Respiratory
Adverse Event or MedDRA Term ([1]; neonatal subject, adverse event number 2): Congenital disorder
Adverse Event or MedDRA Term ([1]; neonatal subject, adverse event number 3): Weight gain
Neurologic Exam (neonatal subject; 1 week to 18 weeks): Normal, age-appropriate tone, posture,
CHOP INTEND (neonatal subject; 1 week): 46
Oral-motor assessment (OrSAT) (neonatal subject; 1 week): 7
CHOP INTEND (neonatal subject; 6 weeks): 50
Oral-motor assessment (OrSAT) (neonatal subject; 6 weeks): 7
Bayley-4 Adaptive Behavior (neonatal subject; 18 weeks): Behavior: 89
Bayley-4 Cognitive (neonatal subject; 18 weeks): Cognitive: 95
Bayley-4 Communication (neonatal subject; 18 weeks): Communication: 103
Bayley-4 Social (neonatal subject; 18 weeks): Social: 95
Oral-motor assessment (OrSAT) (neonatal subject; 18 weeks): 7
HINE-2 (neonatal subject; 18 weeks, maximum score 26): 8
Bayley-4 Motor (neonatal subject; 18 weeks, mean standard score 100, SD 15): Motor: 101
Neurologic Exam (neonatal subject; birth to 1 week): Normal, age- appropriate
